Assay results taken from paper PMC6079302, “Investigating the Mechanism of Action of Diketopiperazines Inhibitors of the Burkholderia cenocepacia Quorum Sensing Synthase CepI: A Site-Directed Mutagenesis Study” (Frontiers in Pharmacology, 2018).

Tests used:
[1] = biological target: T1, CepI Q46R mutant (Burkholderia cenocepacia, UniProt B4EMD2, Q46R); test: CepI activity assay (DCPIP), IC50 determination, Q46R mutant; assay type: biochemical
T1 sequence (B4EMD2 1-202 Q46R): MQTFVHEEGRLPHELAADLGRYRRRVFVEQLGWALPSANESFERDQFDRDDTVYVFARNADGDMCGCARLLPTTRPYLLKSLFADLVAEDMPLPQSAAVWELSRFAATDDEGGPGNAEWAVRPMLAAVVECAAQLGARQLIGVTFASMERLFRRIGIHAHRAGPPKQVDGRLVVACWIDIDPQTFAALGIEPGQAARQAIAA

[2] = biological target: T2, CepI S41R mutant (Burkholderia cenocepacia, UniProt B4EMD2, S41R); test: CepI activity assay (DCPIP), IC50 determination, S41R mutant; assay type: biochemical; conditions: compound 8b IC50, CepI S41R; 70 μM C8-ACP, 40 μM SAM, 4 μM CepI
T2 sequence (B4EMD2 1-202 S41R): T1 sequence (B4EMD2 1-202 Q46R)

[3] = biological target: T3, CepI wild type (Burkholderia cenocepacia, UniProt B4EMD2); test: CepI activity assay (DCPIP), IC50 determination, wild type enzyme; assay type: biochemical; conditions: 70 μM C8-ACP, 40 μM SAM, 4 μM CepI, read-out: compound 8b IC50
T3 sequence (B4EMD2 1-202): T1 sequence (B4EMD2 1-202 Q46R)
Description: Wild type and mutant CepI were expressed in Escherichia coli BL21(DE3) cells and purified as previously described ([Scoffone et al., 2016]).
CepI activity was determined according to [Christensen et al. (2013)]. Reaction mixtures contained 50 mM 4-(2-hydroxyethyl)-1-piperazineethanesulfonic acid (HEPES) pH 7.5, 0.005% Nonidet P-40, 0.13 mM 2,6-dichlorophenylindophenol (DCPIP), 70 μM Octanoyl-ACP (C8-ACP, prepared as reported previously) ([Quadri et al., 1998]; [Cronan and Thomas, 2009]), 40 μM S-adenosyl methionine (SAM), 4 μM CepI.
IC50 was determined measuring the enzyme activity in presence of different concentrations of compound, and values determined with the following equation ([Copeland, 2000]), where A[I] is the enzyme activity at inhibitor concentration [I] and A[0] is the enzyme activity without inhibitor.

[4] = biological target: T4, CepI S41A mutant (Burkholderia cenocepacia, UniProt B4EMD2, S41A); test: CepI activity assay (DCPIP), IC50 determination, S41A mutant; assay type: biochemical
T4 sequence (B4EMD2 1-202 S41A): T1 sequence (B4EMD2 1-202 Q46R)

[5] = biological target: T5, CepI R24Q mutant (Burkholderia cenocepacia, UniProt B4EMD2, R24Q); test: CepI activity assay (DCPIP), IC50 determination, R24Q mutant; assay type: biochemical
T5 sequence (B4EMD2 1-202 R24Q): T1 sequence (B4EMD2 1-202 Q46R)

[6] = biological target: T6, CepI E40Q mutant (Burkholderia cenocepacia, UniProt B4EMD2, E40Q); test: CepI activity assay (DCPIP), IC50 determination, E40Q mutant; assay type: biochemical
T6 sequence (B4EMD2 1-202 E40Q): T1 sequence (B4EMD2 1-202 Q46R)

[7] = test system: B. cenocepacia J2315; test: Proteomic analysis (2-DE, LC-MS/MS) of treated cells compared with the ΔcepI strain; assay type: cell-based, Burkholderia cenocepacia; conditions: J2315 cells treated with 25 μM 8b, compared with untreated J2315; same as ΔcepI profile
Description: Burkholderia cenocepacia ΔcepI ([Udine et al., 2013]) and J2315 (with or without 25 μM of 8b compound) were grown in 10 ml of LB medium until OD600 nm > 2. Cells were then harvested, resuspended in 0.2 ml of Tris-HCl 50 mM, pH 7.5, disrupted by sonication, and centrifuged at 12,000 rpm for 1 h at 4°C.
The amount of proteins present in the supernatant was quantified by bicinchoninic acid method ([Smith et al., 1985]), then 300 μg were precipitated with 10% (v/v) trichloroacetic acid. The obtained protein pellet was dissolved in 125 μL of rehydration buffer (8 M urea, 4% CHAPS (w/v), 65 mM DTE, 0.8% carrier ampholytes (v/v) and 0.5% bromophenol blue) and loaded onto 7 cm IPG strips, with nonlinear pH 3–10 gradient range (GE Healthcare), and strips rehydrated for 1 h at 20°C. The first-dimensional IEF was carried out at 15°C using an Ettan IPGphor system (GE Healthcare), by applying 30 V for 8 h, 120 V for 1 h, 500 V for 0.5 h, 1000 V for 0.5 h and 5000 V for 6 h, for a total of 29–30 kVh. […] Digital images of stained gels were acquired using VersaDoc Imaging Model 3000 (BioRad) and then subjected to quali/quantitative analysis using the PD Quest (BioRad) version 8.0.1 software. […] The software then determined the amount of spots present and calculated their intensity by applying the following algorithm: peak value (ODs/image units) ^∗σx^∗σy (standard deviations in x and y). […]

In the case of `O=C1C=CC(=O)C(C2NC(=O)[C@H](Cc3ccccc3)NC2=O)=C1` (stereo partly drawn) [8b, (3S)-3-Benzyl-6-(3,6-dioxocyclohexa-1,4-dien-1-yl)piperazine-2,5-dione], the IC50 [1] is reported as 19.2 ± 3.5 µM, the “compound 8b IC50” value ([1]; CepI Q46R, 70 μM C8-ACP, 40 μM SAM, 4 μM CepI) is reported as “comparable to wild type CepI” and the IC50 [2] is reported as 1070 ± 75 µM. For the same compound, the IC50 [3] was 7.2 ± 0.2 µM, the IC50 [4] was 113 ± 11 µM and the IC50 [5] was 147 ± 17 µM. The IC50 [6] was 53 ± 2.6 µM and the “density of the 2-DE protein spot of the giant cable pilus protein CblA” value [7] was “higher density”.
